Measurements: patent publication US20170223953A1, “MICROBICIDAL COMPOSITION” (Dow Global Technologies LLC, priority 2016, published 2017)

Tested on: Desulfovibrio longus ATCC 51456
Assay: Biocidal efficacy (complete bacterial kill in 2 hours) and Synergy Index against anaerobic sulfate-reducing bacteria
Type: cell-based
Settings: 35° C.
Procedure: Surfactants and biocides were evaluated for synergy by determining the synergy index (S.I.) of the combination. Synergy index was calculated based on the concentration required to achieve a certain level of bacterial kill when the two antimicrobial compounds (A and B) are used alone and in combinations. The tests organisms were anaerobic sulfate-reducing bacteria (Desulfovibrio longus ATCC #51456). Inside an anaerobic chamber (Bactron anaerobic chamber), a deoxygenated sterile salt solution (3.1183 g of NaCl, 1.3082 mg of NaHCO3, 47.70 mg of KCl, 72.00 mg of CaCl2, 54.49 mg of MgSO4, 172.28 mg of Na2SO4, 43.92 mg of Na2CO3 in 1 L water) was inoculated with Desulfovibrio longus ATCC 51456 to a final bacterial concentration of 10^6 to 10^7 CFU/mL. Aliquots of this cell suspension were then treated with glutaraldehyde, and each of Surf A and B at selected active concentrations. After incubation at 35° C. for 2 hours, viable bacteria in the aliquots were enumerated using serial dilution method. […] SI is calculated as follows: Ca/CA+Cb/CB=Synergy Index (“SI”) Wherein: • Ca=Concentration of biocide A required to achieve a certain level of bacterial kill when used in combination with B • CA=Concentration of biocide A required to achieve a certain level of bacterial kill when used alone • Cb=Concentration of biocide B required to achieve a certain level of bacterial kill when used in combination with A • CB=Concentration of biocide B required to achieve a certain level of bacterial kill when used alone When the sum of Ca/CA and Cb/CB is greater than one, antagonism is indicated.

With O=CCCCC=O [Glut, glutaraldehyde] as the compound, how does the “Concentration (active ppm) for complete bacterial kill in 2 hours, Glut” value (from here on “Concentration (active ppm)”) (Table 1, Glut alone or in combination with Surf. A, 10^6 to 10^7 CFU/mL) read?
The value was 8.8 active ppm.

What about the “Concentration (active ppm)” value (Table 2, Glut alone or in combination with Surf. B) of the same compound?
Its value is 19.8 active ppm.

What about the “Concentration (active ppm)” value (Table 3, Glut alone or in combination with Surf. C) of the same compound?
The value was 19.8 active ppm.
